Read-outs that look alike come from different tables or passages of the source. Values belong to the molecule of their own block, whether it stands above or below them.
Columns and labels:
[1] = tested on: NCI-H1048; assay: Cell response to LSD1 inhibition, SCLC cell line cultured 4 days (Example 5); format: cell-based, human; conditions: NCI-H1048, SubType V; for EC50: Homo sapiens, 96 h
Text: (§1) As a positive control for cytotoxicity the Hsp90 inhibitor 17-N-allylamino-17-demethoxygeldanamycin (17-AAG, a geldanamycin analogue) was used as positive control in serial dilution.

[2] = tested on: NCI-H69; assay: as above; format: cell-based, human; conditions: NCI-H69, SubType C; for EC50: Homo sapiens, 96 h
Text: as §1

[3] = tested on: NCI-H187; assay: as above; format: cell-based, human; conditions: NCI-H187, SubType C; for EC50: Homo sapiens, 96 h
Text: as §1

[4] = tested on: NCI-H446; assay: as above; format: cell-based, human; conditions: NCI-H446, SubType V; for EC50: Homo sapiens, 96 h
Text: as §1

[5] = tested on: NCI-H2029; assay: as above; format: cell-based, human; conditions: NCI-H2029, SubType (C); for EC50: Homo sapiens, 96 h
Text: as §1

[6] = tested on: NCI-H345; assay: as above; format: cell-based, human; conditions: NCI-H345, SubType C; for EC50: Homo sapiens, 96 h
Text: as §1

[7] = tested on: NCI-H2171; assay: as above; format: cell-based, human; conditions: NCI-H2171, SubType V; for EC50: Homo sapiens, 96 h
Text: as §1

[8] = tested on: NCI-H82; assay: as above; format: cell-based, human; conditions: NCI-H82, SubType V; for EC50: Homo sapiens, 96 h
Text: as §1

[9] = tested on: NCI-H1876; assay: as above; format: cell-based, human; conditions: NCI-H1876, SubType C; for EC50: Homo sapiens, 96 h
Text: as §1

[10] = tested on: NCI-H146; assay: as above; format: cell-based, human; conditions: NCI-H146, SubType C; for EC50: Homo sapiens, 96 h
Text: as §1

[11] = tested on: NCI-H526; assay: as above; format: cell-based, human; conditions: NCI-H526, SubType V; for EC50: Homo sapiens, 96 h
Text: as §1

[12] = tested on: NCI-H1417; assay: as above; format: cell-based, human; conditions: NCI-H1417, SubType C; for EC50: Homo sapiens, 96 h
Text: as §1

[13] = tested on: NCI-H510A; assay: as above; format: cell-based, human; conditions: SubType C; for EC50: Homo sapiens, 96 h
Text: as §1

[14] = tested on: NCI-H748; assay: as above; format: cell-based, human; conditions: NCI-H748, SubType C; for EC50: Homo sapiens, 96 h
Text: as §1

[15] = tested on: NCI-H2227; assay: as above; format: cell-based, human; conditions: NCI-H2227, SubType C; for EC50: Homo sapiens, 96 h
Text: as §1

[16] = tested on: SBC-5; assay: as above; format: cell-based, human; conditions: SBC-5, SubType (V); for EC50: Homo sapiens, 96 h
Text: as §1

[17] = tested on: DMS-114; assay: as above; format: cell-based, human; conditions: DMS-114, SubType V; for EC50: Homo sapiens, 96 h
Text: as §1

[18] = tested on: SHP-77; assay: as above; format: cell-based, human; conditions: SHP-77, SubType V(C); for EC50: Homo sapiens, SHP77, 96 h
Text: as §1

[19] = tested on: NCI-H2081; assay: as above; format: cell-based, human; conditions: NCI-H2081, SubType C; for EC50: Homo sapiens, 96 h
Text: as §1

[20] = tested on: NCI-H526 model; assay: NCI-H526 xenograft model, combination with etoposide and carboplatin (Example 4, FIG. 2B); format: in vivo, nu/nu mice; conditions: added at 20 upk 5/2 for three weeks to SOC (etoposide + carboplatin)
Method: 8-12-week old nu/nu mice were injected with 1×10^7 H526 cells or […] SHP-77 resuspended in 100 μL of 1:1 mixture of Matrigel® and PBS. Tumors were staged at 100-150 mm^3 animals and distributed into dosing groups. […] Carboplatin was administered i.p. at a dose of 100 mpk weekly for three weeks (qwkx3). […] Tumor volume was measure biweekly using a digital caliber. The endpoint of the experiment was a tumor volume of 1000 mm^3 or 90 days, whichever came first. Statistical analysis was performed using unpaired t-test and Gehan-Breslow-Wilcoxon test.

[21] = tested on: NCI-H510; assay: Growth Inhibition (ATPLite), SCLC cell line treated for 7 days (Example 1); format: cell-based, human; conditions: NCI-H510, “classic” neuroendocrine, FIG. 1B
Method: (§2) Once cells have been expanded and divided at their expected doubling times, screening was started. Cells were seeded in growth media in black 384-well tissue culture treated plates at 500 cells per well (except where noted in Analyzer). Cells were equilibrated in assay plates via centrifugation and placed in incubators attached to the Dosing Modules at 37° C. for twenty-four hours before treatment. […] These Tzero (T0) plates were read using ultra-sensitive luminescence on Envision Plate Readers.

[22] = tested on: NCI-H1876; assay: as above; format: cell-based, human; conditions: NCI-H1876, “classic” neuroendocrine, FIG. 1A
Method: as §2

[23] = tested on: H510A xenograft model; assay: NCI-H510A xenograft model, in vivo tumor growth inhibition (Example 9, FIG. 9); design: species or system athymic nude mice; conditions: 40 μg per kg five days on/two days off; after 21 days of dosing; compared to untreated controls
Method: 7-8-week old athymic nude mice animals were injected with 5×10^6 H510A cells resuspended in 100 μL of 1:1 mixture of Matrigel® matrix (Corning Inc., Tewksbury/MA, C. S. Hughes et al.^113) and PBS. Tumors were staged at 200-300 mm^3 animals and distributed into dosing groups. […] Tumor volume was measure biweekly using a digital caliber. The study was concluded when mean tumor volume within control group reached 2000 mm^3 or 28 days post-staging. Statistical analysis was performed using unpaired t-test.

[24] = read-out: Sensitivity to LSD1 inh.

EC50 ([1]; read-out: EC50): > 50 nM
EC50 [1, 24]: ≥ 50 nM
EC50 ([2]; read-out: EC50): 0.585 nM
EC50 [2, 24]: < 50 nM
EC50 ([3]; read-out: EC50): 0.136 nM
EC50 [3, 24]: < 50 nM
EC50 ([4]; read-out: EC50): > 50 nM
EC50 [4, 24]: ≥ 50 nM
EC50 ([5]; read-out: EC50): > 50 nM
EC50 [5, 24]: ≥ 50 nM
EC50 ([6]; read-out: EC50): 0.0275 nM
EC50 [6, 24]: < 50 nM
EC50 ([7]; read-out: EC50): > 50 nM
EC50 [7, 24]: ≥ 50 nM
EC50 ([8]; read-out: EC50): > 50 nM
EC50 [8, 24]: ≥ 50 nM
EC50 ([9]; read-out: EC50): 0.0432 nM
EC50 [9, 24]: < 50 nM
EC50 ([10]; read-out: EC50): 0.1 nM
EC50 [10, 24]: < 50 nM
EC50 ([11]; read-out: EC50): 0.632 nM
EC50 [11, 24]: < 50 nM
EC50 ([12]; read-out: EC50): 0.302 nM
EC50 [12, 24]: < 50 nM
EC50 ([13]; read-out: EC50): 0.315 nM
EC50 [13, 24]: < 50 nM
EC50 ([14]; read-out: EC50): 0.3 nM
EC50 [14, 24]: < 50 nM
EC50 ([15]; read-out: EC50): > 50 nM
EC50 [15, 24]: ≥ 50 nM
EC50 ([16]; read-out: EC50): > 50 nM
EC50 [16, 24]: ≥ 50 nM
EC50 ([17]; read-out: EC50): > 50 nM
EC50 [17, 24]: ≥ 50 nM
EC50 ([18]; read-out: EC50): > 50 nM
EC50 [18, 24]: ≥ 50 nM
EC50 ([19]; read-out: EC50): 0.92 nM
EC50 [19, 24]: < 50 nM
SMILES: N[C@H]1CC[C@H](N[C@@H]2C[C@H]2c2ccccc2)CC1 [listing 1 of 2 here]
Max. Response (%) [1]: 27%
Max. Response (%) [2]: 44%
Max. Response (%) [3]: 61%
Max. Response (%) [4]: 7%
Max. Response (%) [5]: 0%
Max. Response (%) [6]: 7%
Max. Response (%) [7]: 0%
Max. Response (%) [8]: 0%
Max. Response (%) [9]: 145%
Max. Response (%) [10]: 48%
Max. Response (%) [11]: 35%
Max. Response (%) [12]: 77%
Max. Response (%) [13]: 68%
Max. Response (%) [14]: 13%
Max. Response (%) [15]: 0%
Max. Response (%) [16]: 23%
Max. Response (%) [17]: 0%
Max. Response (%) [18]: 0%
Max. Response (%) [19]: 10%

SMILES: N[C@H]1CC[C@H](N[C@@H]2C[C@H]2c2ccccc2)CC1 [listing 2 of 2 here]
duration of tumor regression [20]: improved the duration of tumor regression
delay of tumor regrowth ([20]; after the suspension of dosing): 30 days
sensitivity of cell line to the compound [21]: high level of sensitivity
sensitivity of cell line to the compound [22]: high level of sensitivity
tumor growth inhibition [23]: 34%

From US12564559B2, “Combinations of LSD1 inhibitors for use in the treatment of solid tumors” (Oryzon Genomics, S.A., priority 2016, dated 2026)
